In brackets after ≈: the same amount, converted by molar mass.
Tests used:
[1] = test system: Aspergillus niger; experiment: MIC against fungi, Aspergillus niger (PDA medium); format: cell-based; conditions: 336 h, 28° C., 2 weeks, read-out: Antimicrobial activity (MIC), Fungi E: Aspergillus niger
Procedure: (§1) The minimum inhibitory concentration (hereinafter abbreviated as MIC) against four bacteria (Enterobacter aerogenes, Eschericia coli, Pseudomonas aeruginosa and Bacillus subtillis) and four fungi (Aspergillusniger, Penicillium funiculosum, Gliocladium virens and Trichoderma viride) was measured and used as an indicator of the antimicrobial activity.
(§2) The MIC against fungi was measured as follows. The test fungal spores were suspended in sterilized water supplemented with a wetting agent. On the other hand, test media were prepared by adding solutions (0.3 ml) of an iodopropargyl derivative in dimethylformamide (DMF) at varying concentrations to a potato-dextrose-agar (PDA) medium (15 ml). The above spore suspensions (1 ml) were spread over the test media and the media were cultivated at 28° C. for 2 weeks. The presence or absence of fungal growth on the media was then observed to determine the MIC.

[2] = test system: Eschericia coli; experiment: MIC against bacteria, Eschericia coli (nutrient broth, turbidity); format: cell-based; conditions: 30° C., 24 hours; read-out: Antimicrobial activity (MIC), Bacteria B: Eschericia coli
Procedure: as §1
(§3) The MIC against bacteria was measured as follows. The test bacteria were cultivated by inoculating a nutrient broth with them and keeping the mixture at 37° C. for 6 hours. On the other hand, the test media were prepared by adding solutions (0.2 ml) of an iodopropargyl derivative in dimethylformamide (DMF) at varying concentrations to the nutrient broth (10 ml). The above bacterial culture (0.1 ml) was added to the test media and the mixtures were cultivated at 30° C. for 24 hours. Then, the presence or absence of microorganism growth was assessed by observing the turbidity of media, by which the MIC was determined.

[3] = test system: Bacillus subtillis; experiment: MIC against bacteria, Bacillus subtillis (nutrient broth, turbidity); format: cell-based; conditions: 30° C., 24 hours, read-out: Antimicrobial activity (MIC), Bacteria D: Bacillus subtillis
Procedure: as §1, §3

[4] = test system: Trichoderma viride; experiment: MIC against fungi, Trichoderma viride (PDA medium); format: cell-based; conditions: 336 h, 28° C., 2 weeks, read-out: Antimicrobial activity (MIC), Fungi H: Trichoderma viride
Procedure: as §1, §2

[5] = test system: Gliocladium virens; experiment: MIC against fungi, Gliocladium virens (PDA medium); format: cell-based; conditions: Trichoderma virens, 336 h; 28° C., 2 weeks; read-out: Antimicrobial activity (MIC), Fungi G: Gliocladium virens
Procedure: as §1, §2

[6] = test system: Enterobacter aerogenes; experiment: MIC against bacteria, Enterobacter aerogenes (nutrient broth, turbidity); format: cell-based; conditions: Klebsiella aerogenes; 30° C., 24 hours; read-out: Antimicrobial activity (MIC), Bacteria A: Enterobacter aerogenes
Procedure: as §1, §3

[7] = test system: Penicillium funiculosum; experiment: MIC against fungi, Penicillium funiculosum (PDA medium); format: cell-based; conditions: Talaromyces funiculosus, 336 h; 28° C., 2 weeks; read-out: Antimicrobial activity (MIC), Fungi F: Penicillium funiculosum
Procedure: as §1, §2

[8] = test system: Pseudomonas aeruginosa; experiment: MIC against bacteria, Pseudomonas aeruginosa (nutrient broth, turbidity); format: cell-based; conditions: 30° C., 24 hours, read-out: Antimicrobial activity (MIC), Bacteria C: Pseudomonas aeruginosa
Procedure: as §1, §3

[9] = test system: four bacteria and four fungi; experiment: Antimicrobial activity (MIC) against four bacteria and four fungi, overall; format: cell-based; conditions: from results of Table 1
Procedure: as §1, §3, §2

[10] = test system: mold; conditions: background art; cited from earlier work
[11] = test system: human body; conditions: background art; cited from earlier work

| MIC [1] [mg/L] | MIC [2] [mg/L] | MIC [3] [mg/L] | MIC [4] [mg/L] | MIC [5] [mg/L] | MIC [6] [mg/L] | MIC [7] [mg/L] | MIC [8] [mg/L] | Structure (SMILES) | antimicrobial activity compared with the other derivatives [9] | antimicrobial activity compared with control 1-chloro-4-[[(3-iodo-2-propynyl)oxy]methoxy]benzene [9] | antimicrobial activity against mold [10] | toxicity against the human body [11] |
| --- | --- | --- | --- | --- | --- | --- | --- | --- | --- | --- | --- | --- |
| 0.4 to 1 (≈ 1.2 to 3.01 µM) | > 1000 | 20 to 40 (≈ 60.2 to 120 µM) | 1 to 2 (≈ 3.01 to 6.02 µM) | 4 to 10 (≈ 12 to 30.1 µM) | > 1000 | 2 to 4 (≈ 6.02 to 12 µM) | > 1000 | COc1ccc(OC(C)OCC#CI)cc1 (stereo not drawn) [Derivative III-e, 1-[1-[(3-Iodo-2-propynyl)oxy]ethoxy]-4-methoxybenzene] | superior to the others in the antimicrobial activity | – | – | – |
| 1 to 2 (≈ 3.01 to 6.02 µM) | > 1000 | 20 to 40 (≈ 60.2 to 120 µM) | 2 to 4 (≈ 6.02 to 12 µM) | 4 to 10 (≈ 12 to 30.1 µM) | > 1000 | 2 to 4 (≈ 6.02 to 12 µM) | > 1000 | COc1ccccc1OC(C)OCC#CI (stereo not drawn) [Derivative III-g, 1-[1-[(3-Iodo-2-propynyl)oxy]ethoxy]-2-methoxybenzene] | – | – | – | – |
| 1 to 2 (≈ 3.01 to 6.02 µM) | > 1000 | 20 to 40 (≈ 60.2 to 120 µM) | 1 to 2 (≈ 3.01 to 6.02 µM) | 4 to 10 (≈ 12 to 30.1 µM) | > 1000 | 4 to 10 (≈ 12 to 30.1 µM) | > 1000 | CCOc1ccccc1OCOCC#CI [Derivative III-d, 1-Ethoxy-2-[[(3-iodo-2-propynyl)oxy]methoxy]benzene] | – | – | – | – |
| 0.4 to 1 (≈ 1.26 to 3.14 µM) | > 1000 | 10 to 20 (≈ 31.4 to 62.9 µM) | 0.4 to 1 (≈ 1.26 to 3.14 µM) | 2 to 4 (≈ 6.29 to 12.6 µM) | > 1000 | 2 to 4 (≈ 6.29 to 12.6 µM) | > 1000 | COc1ccc(OCOCC#CI)cc1 [Derivative III-a, 1-[[(3-Iodo-2-propynyl)oxy]methoxy]-4-methoxybenzene] | superior to the others in the antimicrobial activity | show an antimicrobial activity similar to that of 1-chloro-4-[[(3-iodo-2-propynyl)oxy]methoxy]benzene | – | – |
| 4 to 10 (≈ 12 to 30.1 µM) | > 1000 | 100 to 200 (≈ 301 to 602 µM) | 4 to 10 (≈ 12 to 30.1 µM) | > 20 | > 1000 | > 20 | > 1000 | CCOc1ccc(OCOCC#CI)cc1 [Derivative III-b, 1-Ethoxy-4-[[(3-iodo-2-propynyl)oxy]methoxy]benzene] | – | – | – | – |
| 1 to 2 (≈ 3.19 to 6.39 µM) | > 1000 | 20 to 40 (≈ 63.9 to 128 µM) | 0.4 to 1 (≈ 1.28 to 3.19 µM) | 0.4 to 1 (≈ 1.28 to 3.19 µM) | > 1000 | 0.4 to 1 (≈ 1.28 to 3.19 µM) | > 1000 | N#Cc1ccc(OCOCC#CI)cc1 [Derivative III-i, 1-Cyano-4-[[(3-iodo-2-propynyl)oxy]methoxy]benzene] | superior to the others in the antimicrobial activity | show an antimicrobial activity similar to that of 1-chloro-4-[[(3-iodo-2-propynyl)oxy]methoxy]benzene | – | – |
| 1 to 2 (≈ 2.89 to 5.78 µM) | 400 to 1000 (≈ 1160 to 2890 µM) | 10 to 20 (≈ 28.9 to 57.8 µM) | 1 to 2 (≈ 2.89 to 5.78 µM) | 4 to 10 (≈ 11.6 to 28.9 µM) | > 1000 | 4 to 10 (≈ 11.6 to 28.9 µM) | > 1000 | CCOc1ccc(OC(C)OCC#CI)cc1 (stereo not drawn) [Derivative III-f, 1-Ethoxy-4-[1-[(3-Iodo-2-propynyl)oxy]ethoxy]benzene] | – | – | – | – |
| 2 to 4 (≈ 5.78 to 11.6 µM) | > 1000 | 20 to 40 (≈ 57.8 to 116 µM) | 2 to 4 (≈ 5.78 to 11.6 µM) | 4 to 10 (≈ 11.6 to 28.9 µM) | > 1000 | 2 to 4 (≈ 5.78 to 11.6 µM) | > 1000 | CCOc1ccccc1OC(C)OCC#CI (stereo not drawn) [Derivative III-h, 1-Ethoxy-2-[1-[(3-iodo-2-propynyl)oxy]ethoxy]benzene] | – | – | – | – |
| 10 to 20 (≈ 31.4 to 62.9 µM) | > 1000 | 200 to 400 (≈ 629 to 1260 µM) | 10 to 20 (≈ 31.4 to 62.9 µM) | > 20 | > 1000 | > 20 | > 1000 | COc1ccccc1OCOCC#CI [Derivative III-c, 1-[[(3-Iodo-2-propynyl)oxy]methoxy]-2-methoxybenzene] | – | – | – | – |
| 0.4 to 1 (≈ 1.24 to 3.1 µM) | 100 to 200 (≈ 310 to 620 µM) | 10 to 20 (≈ 31 to 62 µM) | 1 to 2 (≈ 3.1 to 6.2 µM) | 1 to 2 (≈ 3.1 to 6.2 µM) | > 1000 | 0.4 to 1 (≈ 1.24 to 3.1 µM) | > 1000 | Clc1ccc(OCOCC#CI)cc1 [IF-1000, 1-Chloro-4-[[(3-iodo-2-propynyl)oxy]methoxy]benzene, reference compound] | – | – | particularly high antimicrobial activity against mold | low toxicity against the human body |

Source: patent publication US6143311A, “Iodopropargyl derivatives and antimicrobial agents comprising them as an active ingredient” (Nagase & Company, Ltd., priority 1997, dated 2000)
